These are literature values, as cited in patent publication US5998440A, “Azetidine, pyrrolidine and piperidine derivatives” (Merck Sharpe & Dohme Ltd., priority 1995, dated 1999).

The conditions of the series: humans, therapeutic doses.

As to `CNS(=O)(=O)Cc1ccc2[nH]cc(CCN(C)C)c2c1` [sumatriptan], the adverse cardiovascular events result is listed as “certain adverse cardiovascular events”.
